Data: ChEMBL document CHEMBL1148013, “Synthesis, biological evaluation and molecular modeling studies of arylidene-thiazolidinediones with potential hypoglycemic and hypolipidemic activities” (2007)

Key:
Format in all cases: functional
Set-up in all cases: scale not given: the % may be the effect or the level left
Mus musculus [1] = assay: Reduction in plasma glucose level in alloxan-induced diabetic mouse at 10 mg/kg/day, po after 15 days relative to control
Mus musculus [2] = assay: Reduction in plasma triglyceride level in alloxan-induced diabetic mouse at 30 mg/kg/day, po after 15 days relative to control
Mus musculus [3] = assay: Reduction in plasma triglyceride level in alloxan-induced diabetic mouse at 10 mg/kg/day, po after 15 days relative to control
Mus musculus [4] = assay: Reduction in plasma glucose level in alloxan-induced diabetic mouse at 30 mg/kg/day, po after 15 days relative to control
Mus musculus [5] = assay: Reduction in plasma glucose level in alloxan-induced diabetic mouse at 5 mg/kg/day, po after 15 days relative to control
Mus musculus [6] = assay: Reduction in plasma triglyceride level in alloxan-induced diabetic mouse at 5 mg/kg/day, po after 15 days relative to control
Mus musculus [7] = assay: Reduction in plasma glucose level in alloxan-induced diabetic mouse at 40 mg/kg/day, po after 15 days relative to control
Mus musculus [8] = assay: Reduction in plasma triglyceride level in alloxan-induced diabetic mouse at 20 mg/kg/day, po after 15 days relative to control
Mus musculus [9] = assay: Reduction in plasma glucose level in alloxan-induced diabetic mouse at 20 mg/kg/day, po after 15 days relative to control
Mus musculus [10] = assay: Reduction in plasma triglyceride level in alloxan-induced diabetic mouse at 40 mg/kg/day, po after 15 days relative to control

Row | SMILES | Activity (Mus musculus [1]) [%] | Activity (Mus musculus [2]) [%] | Activity (Mus musculus [3]) [%] | Activity (Mus musculus [4]) [%] | Activity (Mus musculus [5]) [%] | Activity (Mus musculus [6]) [%] | Activity (Mus musculus [7]) [%] | Activity (Mus musculus [8]) [%] | Activity (Mus musculus [9]) [%] | Activity (Mus musculus [10]) [%]
1 | COc1ccc(/C=C2\SC(=O)N(Cc3ccc(C)cc3)C2=O)cc1 | 20.6 | 58.8 | 37.6 | 50.8 | 27.2 | 32.2 |  |  |  | 
2 | COc1ccc(/C=C2\SC(=O)N(Cc3ccc(C)cc3)C2=O)c(OC)c1 | 21.8 | 46.5 | 40 | 34.6 |  |  | 20.1 |  |  | 
3 | Cc1ccc(CN2C(=O)S/C(=C\c3ccc(O)cc3)C2=O)cc1 | 19.9 |  |  | 37.3 |  |  | 37.2 |  |  | 
4 | Cc1ccc(CN2C(=O)S/C(=C\c3ccc(F)cc3)C2=O)cc1 |  |  |  | 13.5 |  |  |  |  |  | 
5 | Cc1ccc(CN2C(=O)S/C(=C\c3ccccc3Cl)C2=O)cc1 | 19.2 | 26 | 14.8 | 43.3 |  |  |  | 20 | 47 | 
6 | Cc1ccc(CN2C(=O)S/C(=C\c3cccc(Br)c3)C2=O)cc1 | 21.3 |  | 17.6 |  |  |  |  |  |  | 
7 | Cc1ccc(CN2C(=O)S/C(=C\c3ccc(N(C)C)cc3)C2=O)cc1 | 14.9 | 44.1 |  | 40.8 |  |  |  | 17.4 | 35.8 | 
8 | Cc1ccc(CN2C(=O)S/C(=C\c3ccc(Cl)cc3)C2=O)cc1 | 18.7 | 48 |  | 22.8 |  |  | 31.5 |  |  | 27.1
9 | Cc1ccc(/C=C2\SC(=O)N(Cc3ccc(C)cc3)C2=O)cc1 | 16.3 |  | 41.7 |  |  |  |  |  |  | 
10 | Cc1ccc(CN2C(=O)S/C(=C\c3ccc([N+](=O)[O-])cc3)C2=O)cc1 |  | 7.1 |  | 11.42 |  |  |  |  |  | 
11 | CN(CCOc1ccc(CC2SC(=O)NC2=O)cc1)c1ccccn1 (stereo not drawn) [ROSIGLITAZONE] | 36.7 | 6.4 | 43.3 | 11.6 | 26.3 | 15.9 |  |  |  | 
